Data taken from PubChem BioAssay (NCI).
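Tested at 5 concentrations; 48 h exposure; 96-well plates; endpoints linearly interpolated, else capped at highest concentration. GI50: concentration for 50% inhibition of growth. The concentration for full growth arrest is given as TGI.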

What was measured:
Assay in all cases: inhibition of tumour cell growth, NCI panel, 48 h
786-0 renal = tested on: 786-0 renal
A498 renal = tested on: A498 renal
A549 NSCLC = tested on: A549 NSCLC
ACHN renal = tested on: ACHN renal
BT-549 breast = tested on: BT-549 breast
CAKI-1 renal = tested on: CAKI-1 renal
CCRF-CEM leukemia = tested on: CCRF-CEM leukemia
DU-145 prostate = tested on: DU-145 prostate
EKVX NSCLC = tested on: EKVX NSCLC
HCT-116 colon = tested on: HCT-116 colon
HCT-15 colon = tested on: HCT-15 colon
HL-60(TB) leukemia = tested on: HL-60(TB) leukemia
HOP-62 NSCLC = tested on: HOP-62 NSCLC
HOP-92 NSCLC = tested on: HOP-92 NSCLC
HS 578T breast = tested on: HS 578T breast
HT29 colon = tested on: HT29 colon
IGROV1 ovarian = tested on: IGROV1 ovarian
K-562 leukemia = tested on: K-562 leukemia
KM12 colon = tested on: KM12 colon
LOX IMVI melanoma = tested on: LOX IMVI melanoma
M14 melanoma = tested on: M14 melanoma
MALME-3M melanoma = tested on: MALME-3M melanoma
MCF7 breast = tested on: MCF7 breast
MDA-MB-231 breast = tested on: MDA-MB-231 breast
MDA-MB-435 = tested on: MDA-MB-435
MOLT-4 leukemia = tested on: MOLT-4 leukemia
NCI-H226 lung = tested on: NCI-H226 lung
NCI-H23 lung = tested on: NCI-H23 lung
NCI-H460 lung = tested on: NCI-H460 lung
NCI-H522 lung = tested on: NCI-H522 lung
NCI/ADR-RES ovarian = tested on: NCI/ADR-RES ovarian
OVCAR-3 ovarian = tested on: OVCAR-3 ovarian
OVCAR-5 ovarian = tested on: OVCAR-5 ovarian
OVCAR-8 ovarian = tested on: OVCAR-8 ovarian
PC-3 prostate = tested on: PC-3 prostate
RPMI-8226 leukemia = tested on: RPMI-8226 leukemia
RXF 393 renal = tested on: RXF 393 renal
SF-268 CNS = tested on: SF-268 CNS
SF-295 CNS = tested on: SF-295 CNS
SF-539 CNS = tested on: SF-539 CNS
SK-MEL-2 melanoma = tested on: SK-MEL-2 melanoma
SK-MEL-28 melanoma = tested on: SK-MEL-28 melanoma
SK-MEL-5 melanoma = tested on: SK-MEL-5 melanoma
SK-OV-3 ovarian = tested on: SK-OV-3 ovarian
SN12C renal = tested on: SN12C renal
SNB-19 CNS = tested on: SNB-19 CNS
SNB-75 CNS = tested on: SNB-75 CNS
SR leukemia = tested on: SR leukemia
TK-10 renal = tested on: TK-10 renal
U251 CNS = tested on: U251 CNS
UACC-257 melanoma = tested on: UACC-257 melanoma
UACC-62 melanoma = tested on: UACC-62 melanoma
UO-31 renal = tested on: UO-31 renal

## Cc1sc2c(c1C)C(c1ccc(Cl)cc1)=N[C@@H](CC(=O)NCCCCCNC(=O)COc1ccc(C3CCC(=O)NC3=O)cc1)c1nnc(C)n1-2 (some centres undefined)
786-0 renal
  GI50: 2.08 µM
  TGI: > 100 µM
A498 renal
  GI50: 6.27 µM
  TGI: > 100 µM
A549 NSCLC
  GI50: 3.96 µM
  TGI: > 100 µM
ACHN renal
  GI50: 20.7 µM
  TGI: > 100 µM
BT-549 breast
  GI50: 0.0547 µM
  TGI: 0.541 µM
CAKI-1 renal
  GI50: 0.845 µM
  TGI: > 100 µM
CCRF-CEM leukemia
  GI50: 0.0519 µM
  TGI: > 100 µM
DU-145 prostate
  GI50: > 100 µM
  TGI: > 100 µM
EKVX NSCLC
  GI50: 2.5 µM
  TGI: > 100 µM
HCT-116 colon
  GI50: 1.69 µM
  TGI: > 100 µM
HCT-15 colon
  GI50: 3.77 µM
  TGI: > 89.5 µM
HL-60(TB) leukemia
  TGI: 0.0995 µM
HOP-62 NSCLC
  GI50: 0.644 µM
  TGI: > 100 µM
HOP-92 NSCLC
  GI50: 0.0619 µM
HS 578T breast
  GI50: 0.154 µM
  TGI: > 100 µM
HT29 colon
  GI50: 0.95 µM
  TGI: > 100 µM
IGROV1 ovarian
  GI50: 0.269 µM
  TGI: > 100 µM
K-562 leukemia
  GI50: 0.565 µM
  TGI: > 100 µM
KM12 colon
  GI50: 0.483 µM
  TGI: > 100 µM
LOX IMVI melanoma
  GI50: 1.48 µM
  TGI: > 42.9 µM
M14 melanoma
  GI50: 1.01 µM
  TGI: > 100 µM
MALME-3M melanoma
  GI50: 0.788 µM
  TGI: > 100 µM
MCF7 breast
  GI50: 0.0397 µM
  TGI: > 100 µM
MDA-MB-231 breast
  GI50: 0.0908 µM
  TGI: > 100 µM
MDA-MB-435
  GI50: 0.171 µM
  TGI: > 100 µM
MOLT-4 leukemia
  GI50: 0.113 µM
  TGI: > 100 µM
NCI-H226 lung
  GI50: 0.476 µM
  TGI: > 100 µM
NCI-H23 lung
  GI50: 13.1 µM
  TGI: > 100 µM
NCI-H460 lung
  GI50: 47.4 µM
  TGI: > 100 µM
NCI-H522 lung
  GI50: 4.37 µM
  TGI: > 100 µM
NCI/ADR-RES ovarian
  GI50: > 100 µM
  TGI: > 100 µM
OVCAR-3 ovarian
  GI50: 2.3 µM
  TGI: > 100 µM
OVCAR-5 ovarian
  GI50: 0.795 µM
  TGI: > 100 µM
OVCAR-8 ovarian
  GI50: 0.298 µM
  TGI: > 100 µM
PC-3 prostate
  GI50: 0.134 µM
  TGI: > 100 µM
RPMI-8226 leukemia
  GI50: 0.038 µM
  TGI: 1.12 µM
RXF 393 renal
  GI50: 2.17 µM
  TGI: > 100 µM
SF-268 CNS
  GI50: 0.629 µM
  TGI: > 100 µM
SF-295 CNS
  GI50: 3.11 µM
  TGI: > 100 µM
SF-539 CNS
  GI50: 0.439 µM
  TGI: > 100 µM
SK-MEL-2 melanoma
  GI50: 0.371 µM
  TGI: > 100 µM
SK-MEL-28 melanoma
  GI50: 0.901 µM
  TGI: > 100 µM
SK-MEL-5 melanoma
  GI50: 0.345 µM
  TGI: 3.45 µM
SK-OV-3 ovarian
  GI50: 3.31 µM
  TGI: > 100 µM
SN12C renal
  GI50: 0.293 µM
  TGI: > 100 µM
SNB-19 CNS
  GI50: 0.438 µM
  TGI: > 100 µM
SNB-75 CNS
  GI50: < 0.0189 µM
  TGI: 0.389 µM
SR leukemia
  GI50: 0.0645 µM
  TGI: > 100 µM
TK-10 renal
  GI50: 1.7 µM
  TGI: > 40.9 µM
U251 CNS
  GI50: 3.09 µM
  TGI: > 100 µM
UACC-257 melanoma
  GI50: > 26.3 µM
  TGI: > 100 µM
UACC-62 melanoma
  GI50: 0.429 µM
  TGI: > 100 µM
UO-31 renal
  GI50: 3.2 µM
  TGI: 53.9 µM
